Experiments:
15-lipoxygenase (15-LOX) = assay: Aortic gene expression by real-time RT-PCR: 15-LOX; assay type: in vivo, mice; settings: day 84, ratio to β-actin
Protocol: FIG. 4 are photos and graphs showing aortas collected on day 84 of dietary intervention. Representative photomicrographs (100×) of aortic root specimens from (A) control and (B) ABA-fed mice. (C) Analysis of lumenal areas and (D) tunica media areas were performed with aortic cross-sections using Image Pro Plus software. (E) Aortic thickness was analyzed as a ratio of the intima to the media. Gene expression in the aorta of (F) endothelial nitric oxide synthase (eNOS) and (G) 15-lipoxygenase (15-LOX) were measured as a ratio to the house-keeping gene β-actin. Data were analyzed as a completely randomized design.
Total RNA was isolated from aortas using the RNA isolation Minikit (Qiagen) according to the manufacturer's instructions. Total RNA (1 μg) was used to generate a complementary DNA (cDNA) template using the iScript cDNA Synthesis Kit (Bio-Rad, Hercules, Calif.). […] Each gene amplicon was purified with the MiniElute PCR Purification Kit (Qiagen) and quantitated on an agarose gel by using a DNA mass ladder (Promega). […]
(§1) Complementary DNA (cDNA) concentrations for genes of interest were examined by real-time quantitative PCR using an iCycler IQ System and the iQ SYBR green supermix (Bio-Rad). […] Results are presented as a starting quantity of target cDNA (picograms) per microgram of total RNA. […]

[1] = tested on: monocyte chemoattractant protein 1 (MCP-1); assay: Aortic gene expression by real-time RT-PCR: MCP-1; assay type: in vivo, mice; settings: P=0.10
Protocol: (§2) FIG. 6 are graphs showing that ABA decreases immune cell infiltration in aortas of ApoE−/− mice and reduces pro-inflammatory gene expression. ApoE −/− mice were fed high fat diets created with or without 100 mg/kg diet racemic abscisic acid (ABA). (A) Infiltration of F4/80^+CD11b^+ macrophages and CD4^+ T-cells into the aorta were assessed with flow cytometry. Gene expression in the aorta of pro-inflammatory markers (B) vascular cell adhesion molecule 1 (VCAM-1), (C) monocyte chemoattractant protein 1 (MCP-1), (D) E-selectin, (F) peroxisome proliferator-activated receptor γ (PPAR γ), and (G) CD36 were measured as a ratio to the housekeeping gene β-actin. (H) MCP-1 protein concentrations (pg/mL) were measured by ELISA. Data were analyzed as a completely randomized design.
Total RNA was isolated from aortas using the RNA isolation Minikit (Qiagen) according to the manufacturer's instructions. […] Each gene amplicon was purified with the MiniElute PCR Purification Kit (Qiagen) and quantitated on an agarose gel by using a DNA mass ladder (Promega). […]
as §1

[2] = tested on: F4/80+CD11b+ macrophages and CD4+ T-cells; assay: Flow cytometry of immune cell infiltration into the aortic root; assay type: in vivo, mice; settings: day 84, flow cytometry
Protocol: as §2
After euthanization, mouse hearts were perfused with PBS for 2 minutes. Aortas were then extracted. Aortic roots were cut into small […] pieces, and placed in 1× Hanks Balanced Sodium Salt Solution (HBSS) containing 0.2% type II collagenase (Worthington Biochemicals). After digestion at 37° C. for 1 hour, samples were sent through a […] nylon filter (BD), washed with HBSS, and centrifuged at 1200 rpm for 10 min. Cell suspensions were then resuspended in FACS buffer and enumerated by using a Z1 Single Particle Counter (Beckman Coulter). […]

pancreatic β-cells = settings: Bruzzone et al., 2008; cited from earlier work
[3] = tested on: vascular smooth muscle cells and primary human monocytes; settings: stimulated in culture for 6 hours, Magnone et al., 2009; cited from earlier work

SMILES: CC1=CC(=O)CC(C)(C)C1(O)/C=C/C(C)=C\C(=O)O (racemic) [ABA, abscisic acid]
- Aortic expression of 15-lipoxygenase mRNA vs control (15-lipoxygenase (15-LOX)): significantly elevated
- MCP-1 mRNA expression in the aortic roots vs control [1]: reduced, though not to statistical significance
- Recruitment of CD4+ T-cells in the aortic root vs control [2]: significantly reduces recruitment
- Recruitment of F4/80+CD11b+ macrophages in the aortic root vs control [2]: significantly reduces recruitment
- Intracellular levels of cAMP (pancreatic β-cells): increases intracellular levels of cAMP
- MCP-1 [3]: increases
- MMP-9 [3]: increases
